In patent publication US20250042912A1, “NOVEL NON-FLUORINATED QUINOLONE COMPOUND AND USE THEREOF” (priority 2021, published 2025):
Converted amounts (≈) assume the structure as drawn.

Legend:
Type in all cases: cell-based
[1] = test system: Propionibacterium acnes ATCC 11827; assay: Minimum inhibitory concentration (MIC) assay, Propionibacterium acnes ATCC 11827; conditions: Cutibacterium acnes, ATCC11827; anaerobic culture 35+/-2°C, 48 hours; read with naked eyes
Description: (§1) On the day of the experiment, the compound in the flask was dissolved in 100% DMSO until the concentration of mother liquor was 0.4 mg/mL. If the mother liquor was not used on the same day, it was stored at −80° C. for future use. The compound mother liquor and standard antibiotics were subjected to 2-fold gradient dilution with corresponding solvents on a 96-microwell plate (V-bottom) to obtain 100× working solutions (Well 1 to Well 7) in sequence. Among them, the concentrations of the compound were 400 μg/mL, 200 μg/mL, 100 μg/mL, 50 μg/mL, 25 μg/mL, 12.5 μg/mL, 6.25 μg/mL, and 3.125 μg/mL. 100% DMSO was used as growth control (Well 8). As such, the compound motherplate was obtained. Two days before the experiment, anaerobic bacteria (Propionibacterium acnes) stored in a cryogenic tube at −80° C. were scribed on an MBA (Brucella Agar+5% (v/v) defibrillated sheep blood+[…] Hemin+1 μg/mLVitamin K1) plate. The anaerobic bacteria were placed in a 35+/−2° C. anaerobic incubator for 42-48 hours of cultivation. On the day of the experiment, the plate was taken out, clones were picked from the plate and suspended in physiological saline. Then, the turbidity of the bacterial suspension (containing 1.0-2.0×10^8 CFU/mL) was adjusted to OD600=0.2 by a turbidity meter. Then, the adjusted bacterial suspension was diluted to an appropriate concentration with the assay culture medium: about 5×10^5 CFU/mL for aerobic bacteria, and about 1×10^6 CFU/mL for anaerobic bacteria. As such, the inoculating solution was obtained. […] Therefore, the final assay concentrations of the compound were 4 μg/mL, 2 μg/mL, 1 μg/mL, 0.5 μg/mL, 0.25 μg/mL, 0.125 μg/mL, 0.06 μg/mL and 0.03 μg/mL. The total volume of each well on the assay plate was 200 μL: containing 1% DMSO, about 5×10^5 CFU/mL of aerobic bacteria and about 1×10^6 CFU/mL of anaerobic bacteria. All assay plates for aerobic bacteria were aerobically cultured at 35+/−2° C. for 16 to 20 hours, and all assay plates for anaerobic bacteria were anaerobically cultured in an anaerobic incubator at 35+/−2° C. for 48 hours. Note: for anaerobic bacteria, both the preparation of bacterial solution in step 2 and the inoculation of bacterial solution in step 3 were operated in an anaerobic workstation.

[2] = test system: Propionibacterium acnes ATCC 6919; assay: Minimum inhibitory concentration (MIC) assay, Propionibacterium acnes ATCC 6919; conditions: Cutibacterium acnes, ATCC6919; anaerobic culture 35+/-2°C, 48 hours; read with naked eyes
Description: as §1

[3] = test system: Staphylococcus epidermidis ATCC 35983; assay: Minimum inhibitory concentration (MIC) assay, Staphylococcus epidermidis ATCC 35983; conditions: ATCC35983, aerobic culture 35+/-2°C, 16 to 20 hours, read with naked eyes
Description: (§2) On the day of the experiment, the compound in the flask was dissolved in 100% DMSO until the concentration of mother liquor was 0.4 mg/mL. If the mother liquor was not used on the same day, it was stored at −80° C. for future use.
(§3) The compound mother liquor and standard antibiotics were subjected to 2-fold gradient dilution with corresponding solvents on a 96-microwell plate (V-bottom) to obtain 100× working solutions (Well 1 to Well 7) in sequence. Among them, the concentrations of the compound were 400 μg/mL, 200 μg/mL, 100 μg/mL, 50 μg/mL, 25 μg/mL, 12.5 μg/mL, 6.25 μg/mL, and 3.125 μg/mL. 100% DMSO was used as growth control (Well 8). As such, the compound motherplate was obtained.
(§4) One day before the experiment, aerobic bacteria (Staphylococcus epidermidis) stored in a cryogenic tube at −80° C. were scribed on an MHA (Cation-adjusted Mueller-Hinton agar) plate. The aerobic bacteria were placed in a 35+/−2° C. incubator for 18-24 hours of aerobic cultivation.
(§5) On the day of the experiment, the plate was taken out, clones were picked from the plate and suspended in physiological saline. Then, the turbidity of the bacterial suspension (containing 1.0-2.0×10^8 CFU/mL) was adjusted to OD600=0.2 by a turbidity meter. Then, the adjusted bacterial suspension was diluted to an appropriate concentration with the assay culture medium: about 5×10^5 CFU/mL for aerobic bacteria, and about 1×10^6 CFU/mL for anaerobic bacteria. As such, the inoculating solution was obtained.
(§6) 2 μl of 2-fold series dilution of 100× high-concentration working solution was transferred from a compound mother plate (prepared in step 1) to a round-bottom 96-well plate, and then 198 μL of bacterial inoculating solution (prepared in step 2) was added to each well to obtain an MIC assay plate. Therefore, the final assay concentrations of the compound were 4 μg/mL, 2 μg/mL, 1 μg/mL, 0.5 μg/mL, 0.25 μg/mL, 0.125 μg/mL, 0.06 μg/mL and 0.03 μg/mL. The total volume of each well on the assay plate was 200 μL: containing 1% DMSO, about 5×10^5 CFU/mL of aerobic bacteria and about 1×10^6 CFU/mL of anaerobic bacteria.
(§7) All assay plates for aerobic bacteria were aerobically cultured at 35+/−2° C. for 16 to 20 hours, and all assay plates for anaerobic bacteria were anaerobically cultured in an anaerobic incubator at 35+/−2° C. for 48 hours.

[4] = test system: Staphylococcus epidermidis ATCC 35984; assay: Minimum inhibitory concentration (MIC) assay, Staphylococcus epidermidis ATCC 35984; conditions: ATCC35984, aerobic culture 35+/-2°C, 16 to 20 hours, read with naked eyes
Description: as §2, §3, §4, §5, §6, §7

[5] = test system: Staphylococcus epidermidis ATCC 12228; assay: Minimum inhibitory concentration (MIC) assay, Staphylococcus epidermidis ATCC 12228; conditions: ATCC12228, aerobic culture 35+/-2°C, 16 to 20 hours, read with naked eyes
Description: as §2, §3, §4, §5, §6, §7

| MIC [1] [mg/L] | MIC [2] [mg/L] | MIC [3] [mg/L] | MIC [4] [mg/L] | MIC [5] [mg/L] | Structure (SMILES) |
| --- | --- | --- | --- | --- | --- |
| 2 | 2 | 1 | 1 | 2 | NCCNc1cc2c(cn1)-c1ccc3c(=O)c(C(=O)O)cn(C4CC4)c3c1COC2 [Trifluoroacetate of Compound 19] |
| 1 (≈ 2.74 µM) | 0.5 (≈ 1.37 µM) | 1 (≈ 2.74 µM) | 2 (≈ 5.49 µM) | 1 (≈ 2.74 µM) | O=C(O)c1cn(C2CC2)c2c3c(ccc2c1=O)-c1c[nH]c(=O)cc1COC3 [Compound 21] |
| 0.06 (≈ 0.155 µM) | 0.06 (≈ 0.155 µM) | 0.06 (≈ 0.155 µM) | 0.06 (≈ 0.155 µM) | 0.06 (≈ 0.155 µM) | O=C(O)c1cn(C2CC2)c2c3c(ccc2c1=O)-c1cc2nc[nH]c2cc1COC3 [Compound 3] |
| 0.25 | 0.125 | 0.03 | 0.03 | 0.06 | Nc1cc2c(cn1)-c1ccc3c(=O)c(C(=O)O)cn(C4CC4)c3c1COC2 [Trifluoroacetate of Compound 7] |
| 1 | 1 | 0.5 | 0.5 | 0.5 | N=C(N)Nc1cc2c(cn1)-c1ccc3c(=O)c(C(=O)O)cn(C4CC4)c3c1COC2 [Trifluoroacetate of Compound 27] |
| 0.25 (≈ 0.509 µM) | 0.25 (≈ 0.509 µM) | 0.5 (≈ 1.02 µM) | 0.25 (≈ 0.509 µM) | 0.25 (≈ 0.509 µM) | CN(C[C@H]1COC(C)(C)O1)c1cc2c(cn1)-c1ccc3c(=O)c(C(=O)O)cn(C4CC4)c3c1COC2 [Compound 25] |
| 0.5 | 0.5 | 0.06 | 0.06 | 0.06 | O=C(O)c1cn(C2CC2)c2c3c(ccc2c1=O)-c1cnc(NCC2CCC2)cc1COC3 [Trifluoroacetate of Compound 16] |
| 2 | 1 | 0.125 | 0.125 | 0.125 | CNc1cc2c(cn1)-c1ccc3c(=O)c(C(=O)O)cn(C4CC4)c3c1CCC2 [Trifluoroacetate of Compound 20] |
| 0.5 (≈ 1.05 µM) | 0.5 (≈ 1.05 µM) | 0.25 (≈ 0.524 µM) | 0.25 (≈ 0.524 µM) | 0.25 (≈ 0.524 µM) | CC1(C)OC[C@H](CNc2cc3c(cn2)-c2ccc4c(=O)c(C(=O)O)cn(C5CC5)c4c2COC3)O1 [Compound 26] |
| 0.06 (≈ 0.159 µM) | 0.06 (≈ 0.159 µM) | 0.06 (≈ 0.159 µM) | 0.06 (≈ 0.159 µM) | 0.06 (≈ 0.159 µM) | COc1cc2c(cn1)-c1ccc3c(=O)c(C(=O)O)cn(C4CC4)c3c1COC2 [Compound 5] |
| 0.5 | 0.125 | 0.06 | 0.06 | 0.06 | O=C(O)c1cn(C2CC2)c2c3c(ccc2c1=O)-c1cnc(NCc2ccccc2)cc1COC3 [Trifluoroacetate of Compound 15] |
| 0.25 | 0.125 | 0.06 | 0.06 | 0.06 | CNc1cc2c(cn1)-c1ccc3c(=O)c(C(=O)O)cn(C4CC4)c3c1COC2 [Trifluoroacetate of Compound 2] |
| 0.125 | 0.06 | 0.06 | 0.03 | 0.06 | CCNc1cc2c(cn1)-c1ccc3c(=O)c(C(=O)O)cn(C4CC4)c3c1COC2 [Trifluoroacetate of Compound 14] |
| 0.25 | 0.5 | 0.06 | 0.125 | 0.03 | O=C(O)c1cn(C2CC2)c2c3c(ccc2c1=O)-c1cnccc1COC3 [Trifluoroacetate of Compound 11] |
| 0.25 | 0.25 | 0.25 | 0.12 | 0.25 | O=C(O)c1cn(C2CC2)c2c3c(ccc2c1=O)-c1cnc(NC[C@H](O)CO)cc1COC3 [Trifluoroacetate of Compound 22] |
| 0.5 (≈ 1.34 µM) | 0.5 (≈ 1.34 µM) | 0.125 (≈ 0.335 µM) | 0.06 (≈ 0.161 µM) | 0.125 (≈ 0.335 µM) | CNc1cc2c(cn1)-c1ccc3c(=O)c(C(=O)O)cn(C4CC4)c3c1C=CC2 [Compound 4] |
